Data on 22 compounds can be found in US11905281B2 (Amgen Inc., priority 2017, dated 2024).

In assay [1] the test system is Phosphorylation of ERK1/2 in MIA PaCa-2 cells. In words: Phospho-ERK1/2 MSD Assay, MIA PaCa-2 (Table 16 conditions: 2 hours compound treatment). In kind it is cell-based. The following applies: MIA PaCa-2 cells, 10 ng/mL EGF for 10 min, read-out: p-ERK IC50 (MIA PaCa-2). The procedure: (§1) For compounds in Table 16, the following assay conditions were employed:
Sixteen hours prior to compound treatment, MIA PaCa-2 or A549 cells were seeded in 96-well cell culture plates at a density of 25,000 cells/well and incubated at 37° C., 5% CO2. A compound dose-response titration was diluted in growth media, added to appropriate wells of a cell culture plate, and then incubated at 37° C., 5% CO2 for 2 hours. […] Phosphorylation of ERK1/2 in compound-treated lysates was assayed using Phospho-ERK1/2 Whole Cell Lysate kits (Meso Scale Discovery K151DWD) according to the manufacturer's protocol. Assay plates were read on a Meso Scale Discovery Sector Imager 6000, and data were analyzed using a 4-parameter logistic model to calculate IC50 values.

Assay [2] addresses GDP-bound KRAS protein (aa 1-169), containing both G12C and C118A amino acid substitutions (Homo sapiens, UniProt P01116, C118A/G12C). In words: Coupled Nucleotide Exchange Assay (Table 16 conditions: 5 min pre-incubation). In kind it is biochemical. The following applies: 5 min compound pre-incubation; SOS-mediated nucleotide exchange, AlphaScreen. The protocol: as §1
The assay plates were then read on a PerkinElmer EnVision Multilabel Reader, using AlphaScreen® technology, and data were analyzed using a 4-parameter logistic model to calculate IC50 values.
For orientation: Bead proximity is the source of the signal in Alpha formats.

GDP-bound KRAS protein (aa 1-169), containing both G12C and C118A amino acid substitutions, sequence (P01116 1-169 isoform P01116-2 G12C/C118A): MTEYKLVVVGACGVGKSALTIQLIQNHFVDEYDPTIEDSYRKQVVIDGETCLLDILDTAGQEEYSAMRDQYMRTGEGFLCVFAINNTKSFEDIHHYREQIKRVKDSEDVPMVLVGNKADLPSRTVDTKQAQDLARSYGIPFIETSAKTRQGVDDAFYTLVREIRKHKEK

In the case of `C=CC(=O)N1CCN(c2nc(=O)n(-c3c(C)ccnc3C3CC3)c3nc(-c4ccccc4F)c(Cl)cc23)[C@@H](C)C1` (single isomer, unassigned) [Example 45-1], the half-inhibitory concentration (IC50) in assay [1] amounted to 49 nM; in assay [2] it was 89 nM.

Take `C=CC(=O)N1CCN(c2nc(=O)n(-c3c(C)ccnc3C3CC3)c3nc(-c4ccccc4F)c(Cl)cc23)[C@@H](C)C1` (single isomer, unassigned) [Example 45-2]: the IC50 was 435 nM in assay [1] and 727 nM in assay [2].

`C=CC(=O)N1CCN(c2nc(=O)n(-c3ccccc3C(C)(C)C)c3nc(-c4c(O)cccc4F)c(Cl)cc23)[C@@H](C)C1` (single isomer, unassigned) [Example 49-1] showed an IC50 in assay [2] of 2580 nM.

Regarding `C=CC(=O)N1CCN(c2nc(=O)n(-c3ccccc3C(C)(C)C)c3nc(-c4c(O)cccc4F)c(Cl)cc23)[C@@H](C)C1` (single isomer, unassigned) [Example 49-2], the IC50 was found to be 51 nM in assay [1] and 117 nM in assay [2].

In turn, `C=CC(=O)N1CCN(c2nc(=O)n(-c3ccccc3C(C)C)c3nc(-c4ccccc4F)c(Cl)nc23)[C@@H](C)C1` (single isomer, unassigned) [Example 50-1] registered an IC50 in assay [2] of 117 nM.

For `C=CC(=O)N1CCN(c2nc(=O)n(-c3ccccc3C(C)C)c3nc(-c4ccccc4F)c(Cl)nc23)[C@@H](C)C1` (single isomer, unassigned) [Example 50-2], the IC50 in assay [2] turned out to be 3690 nM.

`C=CC(=O)N1CCN(c2nc(=O)n(-c3ccccc3C(C)C)c3nc(-c4ccccc4F)c(C)nc23)[C@@H](C)C1` (single isomer, unassigned) [Example 51-1] came in with an IC50 in assay [2] of 11200 nM.

For the compound `C=CC(=O)N1CCN(c2nc(=O)n(-c3ccccc3C(C)C)c3nc(-c4ccccc4F)c(C)nc23)[C@@H](C)C1` (single isomer, unassigned) [Example 51-2], the IC50 in assay [2] was 221 nM.

For the compound `C=CC(=O)N1CCN(c2nc(=O)n(-c3ccccc3C(C)C)c3nc(-c4c(O)cccc4F)c(C)cc23)[C@@H](C)C1` (single isomer, unassigned) [Example 52-1], in assay [2], the IC50 came out at 5990 nM.

As to `C=CC(=O)N1CCN(c2nc(=O)n(-c3ccccc3C(C)C)c3nc(-c4c(O)cccc4F)c(C)cc23)[C@@H](C)C1` (single isomer, unassigned) [Example 52-2], in assay [2], the IC50 was 146 nM.

`C=CC(=O)N1CCN(c2nc(=O)n(-c3c(C)cnn3C(C)C)c3nc(-c4ccccc4F)c(Cl)cc23)[C@@H](C)C1` (single isomer, unassigned) [Example 53-1]: the IC50 in assay [1] is 93 nM; in assay [2], 98 nM.

`C=CC(=O)N1CCN(c2nc(=O)n(-c3c(C)cnn3C(C)C)c3nc(-c4ccccc4F)c(Cl)cc23)[C@@H](C)C1` (single isomer, unassigned) [Example 53-2]: the IC50 in assay [1] is 229 nM; in assay [2], 320 nM.

Turning to `C=CC(=O)N1CCN(c2nc(=O)n(-c3c(C)cccc3C(C)C)c3nc(-c4c(O)cccc4F)c(Cl)cc23)[C@@H](C)C1` [Example 39-1, 6-chloro-7-(2-fluoro-6-hydroxyphenyl)-1-(2-methyl-6-(2-propanyl)phenyl)-4-((2S)-2-methyl-4-(2-propenoyl)-1-piperazinyl)pyrido-[2,3-d]pyrimidin-2(1H)-one], the values for the IC50 in assay [1] and in assay [2] were 28 nM and 25 nM, respectively.

In the case of `C=CC(=O)N1CCN(c2nc(=O)n(-c3c(C)cccc3C(C)C)c3nc(-c4c(O)cccc4F)c(Cl)cc23)[C@@H](C)C1` [Example 39-2, 6-chloro-7-(2-fluoro-6-hydroxyphenyl)-1-(2-methyl-6-(2-propanyl)phenyl)-4-((2S)-2-methyl-4-(2-propenoyl)-1-piperazinyl)pyrido-[2,3-d]pyrimidin-2(1H)-one], the IC50 in assay [1] stood at 195 nM; in assay [2], 222 nM.

With `C=CC(=O)N1CCN(c2nc(=O)n(-c3c(C)ccnc3C(C)C)c3nc(-c4ccccc4F)c(Cl)cc23)[C@@H](C)C1` [Example 40, 6-Chloro-7-(2-fluorophenyl)-1-(4-methyl-2-(2-propanyl)-3-pyridinyl)-4-((2S)-2-methyl-4-(2-propenoyl)-1-piperazinyl)pyrido[2,3-d]pyrimidin-2(1H)-one], the IC50 was determined as 29 nM in assay [1] and 63 nM in assay [2].

On to `C=CC(=O)N1CCN(c2nc(=O)n(-c3c(C)ccnc3C(C)C)c3nc(-c4ccccc4F)c(Cl)cc23)[C@@H](C)C1` [Example 40-1, 6-chloro-7-(2-fluoro-phenyl)-1-(4-methyl-2-(2-propanyl)-3-pyridinyl)-4-((2S)-2-methyl-4-(2-propenoyl)-1-piperazinyl)pyrido-[2,3-d]pyrimidin-2(1H)-one], for which the figures for the IC50 in assay [1] and in assay [2] were 22 nM and 57 nM, respectively.

`C=CC(=O)N1CCN(c2nc(=O)n(-c3c(C)ccnc3C(C)C)c3nc(-c4c(O)cccc4F)c(F)cc23)[C@@H](C)C1` [Example 41, 6-Fluoro-7-(2-fluoro-6-hydroxyphenyl)-1-(4-methyl-2-(2-propanyl)-3-pyridinyl)-4-((2S)-2-methyl-4-(2-propenoyl)-1-piperazinyl)pyrido[2,3-d]pyrimidin-2(1H)-one]: the half-inhibitory concentration (IC50) in assay [1] turned out to be 85 nM.

Take `C=CC(=O)N1CCN(c2nc(=O)n(-c3c(C)ccnc3C(C)C)c3nc(-c4c(O)cccc4F)c(F)cc23)[C@@H](C)C1` [Example 41-1, 6-fluoro-7-(2-fluoro-6-hydroxyphenyl)-1-(4-methyl-2-(2-propanyl)-3-pyridinyl)-4-((2S)-2-methyl-4-(2-propenoyl)-1-piperazinyl)pyrido-[2,3-d]pyrimidin-2(1H)-one]: the IC50 in assay [1] came to 72 nM.

For the compound `C=CC(=O)N1CCN(c2nc(=O)n(-c3c(C)ccnc3C(C)C)c3nc(-c4c(O)cccc4F)c(F)cc23)[C@@H](C)C1` [Example 41-2, 6-fluoro-7-(2-fluoro-6-hydroxyphenyl)-1-(4-methyl-2-(2-propanyl)-3-pyridinyl)-4-((2S)-2-methyl-4-(2-propenoyl)-1-piperazinyl)pyrido-[2,3-d]pyrimidin-2(1H)-one], in assay [1], the IC50 is 1660 nM.

Turning to `C=CC(=O)N1CCN(c2nc(=O)n(-c3c(C)ccnc3C3CC3)c3nc(-c4c(O)cccc4F)c(F)cc23)[C@@H](C)C1` [Example 42-2, 1-(2-cyclopropyl-4-methyl-3-pyridinyl)-6-fluoro-7-(2-fluoro-6-hydroxyphenyl)-4-((2S)-2-methyl-4-(2-propenoyl)-1-piperazinyl)pyrido-[2,3-d]pyrimidin-2(1H)-one], in assay [2], the IC50 amounted to 1560 nM.

As to `C=CC(=O)N1CCN(c2nc(=O)n(-c3ccccc3C(C)C)c3nc(-c4ccccc4F)c(Cl)nc23)[C@@H](C)C1` [Example 50, 6-Chloro-7-(2-fluorophenyl)-4-((2S)-2-methyl-4-(2-propenoyl)-1-piperazinyl)-1-(2-(2-propanyl)phenyl)-2(1H)-pteridinone], the IC50 in assay [2] was determined as 276 nM.

As to `C=CC(=O)N1CCN(c2nc(=O)n(-c3ccccc3C(C)C)c3nc(-c4c(O)cccc4F)c(C)cc23)[C@@H](C)C1` [Example 52, 7-(2-fluoro-6-hydroxyphenyl)-6-methyl-4-((2S)-2-methyl-4-(2-propenoyl)-1-piperazinyl)-1-(2-(2-propanyl)phenyl)pyrido[2,3-d]pyrimidin-2(1H)-one], the half-inhibitory concentration (IC50) in assay [2] turned out to be 338 nM.

As usually defined, the IC50 is the point on the concentration scale where inhibition reaches its midpoint.
